In PMC3237907 (Nano letters, 2011) one finds Kd data, which are given here for 1 compound.

Structures are written as SMILES.

For this assay, the target named is T1, ParM mutant (His6/K33A/D63C/T174A/T175N/D224C/C287A), TMR-labelled ADP sensor (Escherichia coli, UniProt P11904, C287A/D224C/D63C/K33A/T174A/T175N).
T1 sequence (P11904 1-320 K33A/D63C/T174A/T175N/D224C/C287A): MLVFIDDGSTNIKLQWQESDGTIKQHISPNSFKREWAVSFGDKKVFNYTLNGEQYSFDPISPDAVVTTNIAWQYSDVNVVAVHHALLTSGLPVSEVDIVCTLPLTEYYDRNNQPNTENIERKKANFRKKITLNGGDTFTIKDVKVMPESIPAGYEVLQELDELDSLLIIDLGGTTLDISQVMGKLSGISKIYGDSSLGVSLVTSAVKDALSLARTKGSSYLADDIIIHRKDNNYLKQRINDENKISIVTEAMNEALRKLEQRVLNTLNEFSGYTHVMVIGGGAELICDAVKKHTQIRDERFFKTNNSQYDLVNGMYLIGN
As to the kind of experiment: single-molecule TIRF, TMR self-quenching. Format: binding.

The term Kd denotes a measure of binding affinity in units of concentration. On to `Nc1ncnc2c1ncn2[C@@H]1O[C@H](COP(=O)(O)OP(=O)(O)O)[C@@H](O)[C@H]1O` [ADP], for which the Kd is 20 ± 3 µM.
